Laboratory results as given in patent US5098888A, “New heterocyclic tripeptide compounds” (Adir et Compagnie, priority 1989, dated 1992).

How the values were obtained:
Type in all cases: in vivo
[1] = test system: mice; test: Interaction with clonidine (cerebral survival time on sudden cardiac arrest caused by MgCl2); details: for antagonism of the effect of clonidine: simultaneously with clonidine
[2] = test system: mice; test: Oxotremorine-induced tremor in mice
[3] = test system: synaptosomal high-affinity choline uptake (HACU); test: Barbiturate-induced cholinergic deficit in rats
Text: This sodium-dependent uptake normally constitutes the limiting factor in acetyl choline synthesis.

## Clc1cccc(Cl)c1N=C1NCCN1 [clonidine]
[1]; sudden cardiac arrest caused by intravenous MgCl2
  increase in the cerebral survival time: +60%

## Cn1cnc(C[C@H](NC(=O)[C@@H]2CCC(=O)N2)C(=O)N2[C@H]3CC[C@H](C3)[C@H]2C(N)=O)c1 [Example 1, (S)PyroGlu-(S)(N^.tau. -Me)His-(1S,3S,4R)ABH-NH2]
[2]; 10 mg/kg ip
  induction of tremor by the compound itself: without itself inducing tremor

## NC(=O)[C@@H]1CCCN1C(=O)[C@H](Cc1c[nH]cn1)NC(=O)[C@@H]1CCC(=O)N1 [TRH, pyroglutamylhistidylprolinamide]
[1]; 1 mg/kg ip
  antagonism of the effect of clonidine: -20%
[1]; 3 mg/kg ip
  antagonism of the effect of clonidine: -80%
[1]; without clonidine
  effect on its own in the test: without having an effect on its own
[2]; 3 mg/kg ip
  boosting of the tremor: no longer apparent
[2]; 10 mg/kg ip 30 minutes before oxotremorine 0.5 mg/kg ip, measured at peak of action
  boosting of the tremor: +90%
[2]; administered orally (Example 1: 10 mg/kg)
  boosting of the tremor: no boosting effect
[2]; scopolamine 0.01 mg/kg
  boosting effect in the presence of scopolamine: persists
[3]; 10 mg/kg ip simultaneously with pentobarbital
  inhibition of narcosis: does not inhibit the narcosis
[3]; 10 mg/kg ip simultaneously with pentobarbital 60 mg/kg ip, HACU measured after 20 minutes of narcosis
  counteraction/inhibition of the fall in HACU induced by the barbiturate: -35%

## CCCC(C)C1(CC)C(=O)NC(=O)NC1=O (stereo not drawn) [pentobarbital]
[3]; 60 mg/kg ip, after 20 minutes of narcosis
  fall in synaptosomal high-affinity choline uptake (HACU): -48%
